Test results: the METLIN SMRT retention time set (Domingo-Almenara et al. 2019)

Experiment: gradient 5% acetonitrile 3 min, to 50% in 2 min, to 85% in 15 min, held 3 min, 100 µL/min
Conditions: column: Zorbax Extend-C18 2.1 x 50 mm; eluents: water / acetonitrile, 0.1% formic acid
In short: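 Mixtures of ~100 pure standards were chromatographed on a Zorbax Extend-C18 column (2.1 × 50 mm, 1.8 μm) at 100 μL/min using water and acetonitrile, each with 0.1% formic acid. Detection used a quadrupole time-of-flight mass spectrometer in positive and negative ionization mode, and data collection spanned 3 months. Retention time was obtained from adduct peaks picked computationally and each checked manually.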

Compound	RP-LC retention time [s]
CC(NC(=O)CCc1c(-c2ccc(Br)cc2)nc2ccccn12)c1ccccc1 (configuration not stated)	770
Cc1oc(C2CCN(S(=O)(=O)CCc3ccccc3)CC2)nc1C(=O)N(C)C	816
COc1ccc(C2(C(=O)N3CCC4(CC3)C(OC)C(=O)N4c3cccc(F)c3)CC2)cc1 (configuration not stated)	901
CN(C)C(=O)c1cc2c(s1)CCC(C(=O)NCc1nc3ccccc3n1C)C2 (configuration not stated)	595
COc1ccc(Cl)cc1NC(=O)N1CCC(n2cnc3cc(F)ccc3c2=O)CC1	895
Cc1sc(-c2cc(C(F)(F)F)on2)cc1S(=O)(=O)Nc1ccccc1Cl	1180
O=C(Cc1cccc(F)c1)NC1CCN(c2ccccc2)C1=O (configuration not stated)	770
Cc1ccc(Cn2nc3c(S(=O)(=O)N4CCCCC4)cccn3c2=O)c(C)c1	967
FC(F)(F)c1cccc(N2CCN(c3ncnc4sccc34)CC2)c1	987
O=C(c1ccco1)N1CCN(c2nc(-c3ccc(Cl)cc3)nc3ccccc23)CC1	747
CCc1noc(NC(C)=O)c1-c1ccc(C)c(S(=O)(=O)Nc2cc(OC)cc(OC)c2)c1	854
CN1CCN(c2ccc(-c3cccc(NC(=O)c4ccccc4F)c3)nn2)CC1	693
CCOC(=O)c1ccc(NC(=O)CN2CCC(C)CC2)cc1	561
Cc1noc(C)c1CN1CCC(NC(=O)c2cccc(C#N)c2)C1 (configuration not stated)	578
Clc1ccccc1-c1nnc2sc(-c3ccc4ccccc4n3)nn12	1150
CC(=O)N1c2ccc(S(=O)(=O)N3CCCC3C(=O)Nc3cc(C)ccn3)cc2CC1C (configuration not stated)	617
Cc1nn(-c2ccc(C(=O)N3CCN(C(=O)c4ccco4)CC3)cc2)c2c1C(=O)CC(C)(C)C2	712
Cc1ccccc1Nc1c(-c2ccccc2O)nc2c(C)cccn12	701
COc1ccccc1NC(=O)N1CCC(CNC(=O)C(=O)Nc2cccnc2)CC1	591
OC[C@@H]1CN(Cc2ccc3[nH]ccc3c2)C[C@H]1c1ccccn1	580
CCCNC(=O)N1C[C@@H]2C(=O)N(CCc3ccccc3)C(=O)[C@@H]2C1	716
COc1ccc(-c2noc(-c3nnn(Cc4nc(-c5ccccc5OC)oc4C)c3C)n2)cc1	1100

Compound	RP-LC retention time [s]
Cc1cc(=O)n(CC(=O)Nc2ccccc2C)c(N2CCOCC2)n1	657
COCC(=O)Nc1cc(-c2nc3ccc(C)cc3[nH]2)ccc1C	620
CCOc1ccccc1NC(=O)Cn1nnc(C(=O)Nc2cc(Cl)ccc2OC)c1N	970
COc1cccc(-c2nnc(Cc3nc(-c4ccc(Br)cc4)no3)o2)c1	1100
Cc1cc(-c2nnc(-c3ccccc3)o2)c(C)n1CC(=O)NC1CCCCC1	883
CCN(C(=O)C(=O)c1c(C)[nH]c2ccccc12)c1ccccc1	809
CCOC(=O)c1c(C)[nH]c(C)c1S(=O)(=O)NCCCN1CCc2ccccc2C1	651
COc1ccc(C)cc1NC(=O)C1CCN(S(C)(=O)=O)c2cc(Cl)ccc2O1 (configuration not stated)	1100
Cc1occc1C(=O)N1CCc2nn(CC3CC3)c(=O)n2CC1	646
COc1ccc2c(c1)C1(CCN(S(=O)(=O)c3ccc(F)c(C)c3)C1)C(=O)N2C (configuration not stated)	973
CCOc1cc(C2NC(=O)c3[nH]nc(-c4cccc(OC)c4)c32)ccc1O (configuration not stated)	669
Cc1cccc(-n2c(=O)c3sccc3n(Cc3nc(-c4ccc(OC(C)C)cc4)no3)c2=O)c1	1120
O=C(c1cccs1)N1CCN(c2nnc3ccccn23)CC1	608
CCCn1cc(C(=O)Nc2cccc(F)c2)c(S(=O)(=O)N2CCC(C)CC2)n1	1220
Cn1c(N2CCCC(C(=O)NCC3CCN(Cc4ccccc4F)CC3)C2)cc(=O)n(C)c1=O (configuration not stated)	579
O=C(c1ccc2cc[nH]c2c1)N1CCN(C(=O)c2nnn3c2COC(c2ccc(Cl)cc2)C3)CC1 (configuration not stated)	918
O=C(c1ccccc1F)N1CCC2(C1)C(=O)Nc1ccccc12 (configuration not stated)	662
CCOc1ccccc1NC(=O)N1CCN(Cc2nc3cc(Cl)ccc3o2)CC1	867
CCNC(=O)C1CCCN(c2nc3ncn(CC(=O)Nc4ccccc4F)c(=O)c3s2)C1 (configuration not stated)	647
N#Cc1nc(-c2ccc(COc3ccc(Cl)cc3)o2)oc1N1CCC(C(N)=O)CC1	806
CCC(c1cccs1)N1C(=O)[C@H]2CN(S(=O)(=O)c3cc(F)cc(F)c3)C[C@H]2C1=O (some centres not stated)	1040
COC(=O)c1c(NCC2CCCO2)c2cccc(Cl)c2[nH]c1=O (configuration not stated)	703

Compound	RP-LC retention time [s]
Cc1nnsc1C(=O)N1CCC(CNC(=O)Cn2c(=O)oc3ccccc32)CC1	641
O=C(CCc1c(-c2ccccc2)nc2ccccn12)Nc1ccc(F)cc1	674
Cc1cc(C)c2[nH]c3c(c(=O)c2c1)CN(CC(=O)NCc1ccc2c(c1)OCO2)CC3	620
Cc1cc(=O)n(CC(=O)Nc2cc(C)on2)c(N2CCOCC2)n1	592
Cc1cc(OCC(=O)N2CCC(C)CC2)nc(-c2ccc(F)cc2)n1	1040
Cn1ccc2ccn(CC(=O)Nc3ccc(Br)cc3)c(=O)c21	795
Cn1c(CN(c2ccc(F)cc2)S(C)(=O)=O)nnc1SCc1nnc(-c2ccccc2)o1	710
Cc1cccc(NC(=O)Nc2ccc3nnc(C)n3c2)c1	747
C=CCNC(=O)c1nnc2n(c1=O)CCN2c1ccc(F)cc1	622
COC(=O)C1C(=O)C2=C(CC1C)NC(C)=C(C(=O)OC(C)C)C2c1cccc(F)c1 (configuration not stated)	951
Cc1ccc(NC(=O)Cn2nc(N3CCOCC3)c3ccccc3c2=O)c(C)c1	809
COc1ccc(OCC(=O)N2CCN(c3cc(C)n4cnnc4n3)CC2)cc1	593
CC(C)(C)NC(=O)N1CCN(Cc2nc3cccnc3n2-c2cccc(F)c2)CC1	648
Cc1nnc2sc(-c3cccs3)nn2c1=O	664
Cc1cc(C)cc(NC(=O)c2c(O)c3cccnc3n(-c3ccc(F)cc3)c2=O)c1	803
Cc1ccc(C(=O)Nc2cc(-c3ccsc3)no2)c(C)c1	1030
COc1ccc(NC(=O)N2CCN(c3cc(-c4ccc(OC)c(OC)c4)ncn3)CC2)cc1OC	620
Cc1cccc(NS(=O)(=O)c2ccc3c(c2)C(=O)N(C)c2ncccc2O3)c1	1050
CC(=O)Nc1nonc1-c1nnc(SCC(=O)Nc2nc(-c3ccccc3)cs2)n1C	833
CCc1nc(N2CCNCC2)c(C#N)c2c1COC(C)(C)C2	627
CC(=O)Nc1ccc(C2(C(=O)NCc3cccc(Cl)c3)CCC2)cc1	785
Cc1noc2nc(C)n(CC(=O)Nc3ccccc3C(F)(F)F)c(=O)c12	779

Compound	RP-LC retention time [s]
Cn1nc(-c2nnc(-c3ccccc3)o2)c2c1CCN(S(=O)(=O)c1cccc(C#N)c1)C2	884
COc1ccc(C(C)NC(=O)c2sc3ncccc3c2-n2cccc2)cc1OC (configuration not stated)	929
CC1Oc2ccccc2N(Cc2nc(-c3cccc(Br)c3)no2)C1=O (configuration not stated)	1200
Cc1ccc(Nc2nc(N3CCN(C(=O)c4ccco4)CC3)nc3[nH]ncc23)cc1	616
CCn1ccc(C(=O)Nc2ccc(OCc3nnc(-c4ccc(Cl)cc4)o3)cc2)n1	1010
COc1cccc(C2Cn3nnc(-c4nc(-c5cccc(C(F)(F)F)c5)no4)c3CO2)c1 (configuration not stated)	1270
Cc1cccc(CN2C[C@@H]3C(=O)N(CCc4ccccc4)C(=O)[C@@H]3C2)c1	777
Cc1ccc(CN2CC(Cn3c(C)cnc3-c3ccncc3)C2)o1	611
CC(C)(C)C(=O)Nc1ccc2nc(N3CCN(c4ccccc4)CC3)cc(C(=O)O)c2c1	683
COCC(=O)N(CCC(C)C)CC(=O)N1CCc2sccc2C1COc1ccccc1F (configuration not stated)	958
NS(=O)(=O)c1ccc(CCNS(=O)(=O)c2ccccc2-c2nc(-c3ccccc3)no2)cc1	886
O=C(Nc1nc2c(s1)CCCC2C(=O)N1CCOCC1)c1ccc(Cl)cc1 (configuration not stated)	759
CCc1nc(OCC(=O)NCc2ccc3c(c2)OCO3)c2ccccc2n1	902
Cc1oc(-c2[nH]ncc2C(=O)N(C)C)cc1S(=O)(=O)NC1CC1	614
COc1ccc(NC(=O)Nc2c(-c3ccc(C)cc3)nc3ccccn23)cc1OC	927
CC(C)CCNC(=O)c1ccc2c(c1)CCCN2S(C)(=O)=O	846
COCCn1c(CC2CCN(C(=O)Nc3ccc(F)c(Cl)c3)C2)nc2cccnc21 (configuration not stated)	660
Cc1c(Cl)cccc1NC(=O)Cn1nc2c3cc(F)ccc3ncn2c1=O	677
CCCNC(=O)C1CCN(c2ccc(SCC(=O)Nc3ccc(C(C)C)cc3)nn2)CC1	657
C[C@@H](Oc1cc(-n2cnc3ccc(CN4CCN(C)CC4)cc32)sc1C(N)=O)c1ccccc1C(F)(F)F	690
O=C(NCc1ccccn1)C(=O)NCC1OCCN1S(=O)(=O)c1cccs1 (configuration not stated)	563
